The text below walks through data of ChEMBL document CHEMBL6078680, “Improving the Stability and Anti-Infective Activity of Sea Turtle AMPs Using Multiple Structural Modification Strategies” (J Med Chem, 2024).

Data set [1] relates to Staphylococcus aureus. Nature of the data set: Antimicrobial activity against Staphylococcus aureus CMCC 26003 at 5 times MIC measured at 180 mins. Type of data set: functional, organism-based.
Another data set has as its system Acinetobacter baumannii. Briefly: Antibiofilm activity against Acinetobacter baumannii ATCC 19606 assessed as inhibition of biofilm formation at 0.5 times MIC incubated for 48 hrs by crystal violet staining based analysis. It counts as functional.
A further data set deals with Trypsin (Homo sapiens, UniProt P07477+P07478+P35030). Briefly: Stability of compound assessed as trypsin (unknown origin) mediated drug degradation […] measured at 24 hrs by RP-HPLC analysis. It counts as ADME, protein assay. The following applies: read-out: Activity.
For data set [2], the system named is Staphylococcus aureus. Briefly: Antipersister-activity against Staphylococcus aureus CMCC 26003 assessed as elimination of persister cells at 50 times MIC preincubated adherent persistent cells with colistin incubation for 24 hrs. It counts as functional.
A short description of data set [3]: Hemolytic activity at human Erythrocyte assessed as hemolysis at 100 microg/ml. Type of data set: toxicity, cell-based. The following applies: erythrocytes, at 100 µg/mL, read-out: Activity.
In data set [4] the test system is Peritoneal macrophage. Briefly: Antiinflammatory activity in mouse Peritoneal macrophage cells assessed as inhibition of LPS-induced IL-6 production at 20 microg/ml incubated for 6 hrs by ELISA analysis. The following applies: dose 20.0 µg/ml. It counts as functional, cell-based.
The subject of data set [5] is Staphylococcus aureus. Nature of the data set: Antibiofilm activity against Staphylococcus aureus CMCC 26003 assessed as biofilm eradication at 0.5 to 2 times MIC incubated for 24 hrs by crystal violet staining based analysis. Type of data set: functional.
For data set [6], the system named is Peritoneal macrophage. Nature of the data set: Antiinflammatory activity in mouse Peritoneal macrophage cells assessed as inhibition of LPS-induced TNF-alpha production at 20 microg/ml incubated for 6 hrs by ELISA analysis. Type of data set: functional, cell-based. The following applies: dose 20.0 µg/ml.
Another data set concerns HaCaT. Nature of the data set: Cytotoxicity against human HaCaT cells assessed as survival rate at 100 microg/ml. Type of data set: functional. The following applies: read-out: Survival.
The subject of data set [7] is Staphylococcus aureus. Nature of the data set: Antimicrobial activity against Staphylococcus aureus CMCC 26003 measured at 8 hrs in presence of mouse serum. Type of data set: functional, organism-based.
Data set [8] in a line: Acute toxicity in BALB/c mouse assessed as effect on BUN level at 10 mg/kg, iv measured for 24 hrs. Type of data set: organism-based. The following applies: in vivo.
Data set [9] deals with Peritoneal macrophage. Nature of the data set: Cytotoxicity against mouse Peritoneal macrophage cells assessed as survival rate at 100 microg/ml. Type of data set: functional. The following applies: read-out: Survival.
The test system of data set [10] is Escherichia coli. Nature of the data set: Antimicrobial activity against Escherichia coli ATCC 25922 measured at 8 hrs in presence of mouse serum. Type of data set: functional, organism-based.
Data set [11] is described as follows: Acute toxicity in BALB/c mouse assessed as mortality at 15 mg/kg, iv measured for 24 hrs. The following applies: in vivo, read-out: Activity. Type of data set: organism-based.
Data set [12] is described as follows: Acute toxicity in BALB/c mouse assessed as mortality at 50 mg/kg, iv measured for 24 hrs. The following applies: in vivo, read-out: Activity. It counts as organism-based.
Data set [13] can be described thus: Acute toxicity in BALB/c mouse assessed as mortality at 10 mg/kg, iv measured for 24 hrs. The following applies: in vivo, read-out: Activity. Type of data set: organism-based.
A short description of data set [14]: Acute toxicity in BALB/c mouse assessed as mortality at 20 mg/kg, iv measured for 24 hrs. It counts as organism-based. The following applies: in vivo, read-out: Activity.
The test system of data set [15] is Escherichia coli. Briefly: Drug resistance, ratio of MIC for Escherichia coli ATCC 25922 after 40 passages to MIC for Escherichia coli ATCC 25922 during first exposure. Type of data set: functional.
Data set [16] deals with Peritoneal macrophage. Briefly: Cytotoxicity against mouse Peritoneal macrophage cells assessed as decrease in cell number at 20 microg/ml. The following applies: dose 20.0 µg/ml. Type of data set: functional, cell-based.
The next data set has as its system 4T1. Nature of the data set: Cytotoxicity against mouse 4T1 cells assessed as survival rate at 100 microg/ml. Type of data set: functional. The following applies: read-out: Survival.
In a further data set the test system is B16-F10. Briefly: Cytotoxicity against mouse B16-F10 cells assessed as survival rate at 100 microg/ml. It counts as functional. The following applies: read-out: Survival.

Activity calls are given as the source filed them. The rule behind the calls is not given here. Positions of bridges follow the written chain, without caps; N, C: chain ends. Non-standard residues stand in square brackets, D forms with d. Residues, ends and D or L forms follow the SMILES beside them. *: point of attachment. X3 = CC[C@H](C)CCCCC(=O)*; Dab = NCC[C@H](N)C(=O)O

Take `CC[C@@H](C)[C@@H](NC(=O)[C@@H](CCCNC(=N)N)NC(=O)[C@@H](CO)NC(=O)[C@@H](Cc1c[nH]cn1)NC(=O)[C@@H](CCCNC(=N)N)NC(=O)[C@@H](CC(C)C)NC(=O)[C@H](NC(=O)[C@@H](CCCNC(=N)N)NC(=O)CNC(=O)[C@@H](CC(C)C)NC(=O)[C@@H](CCC(N)=O)NC(=O)[C@@H](CCCCN)NC(=O)[C@@H](CCCNC(=N)N)NC(=O)[C@H](NC(=O)[C@@H](CCCCN)NC(=O)[C@@H](CCCCN)NC(=O)[C@H](N)Cc1ccccc1)C(C)C)C(C)C)C(=O)N[C@@H](C(=O)N[C@@H](C(=O)NCC(=O)NCC(=O)N[C@H](CCCNC(=N)N)C(=O)N[C@H](CCSC)C(=O)N[C@H](CCCNC(=N)N)C(=O)N[C@H](Cc1ccccc1)C(=O)O)C(C)C)[C@H](C)O`: the outcome in the data set on Staphylococcus aureus [1] was inactive. Besides, the “inhibition (INH)” value in the data set with Acinetobacter baumannii amounted to 10%. Moreover, on Trypsin, the metabolised at 24 h was less than 60%. The Activity came to 50% in the data set with Staphylococcus aureus [2] and 20% in the data set with Staphylococcus aureus [5]. In data set [3], the hemolysis at 100 microg/ml is less than 5%. Moreover, the outcome with Peritoneal macrophage [4] and with Peritoneal macrophage [6] was Active.

`CC[C@H](C)[C@H](NC(=O)[C@H](CCCNC(=N)N)NC(=O)[C@H](CO)NC(=O)[C@H](Cc1c[nH]cn1)NC(=O)[C@H](CCCNC(=N)N)NC(=O)[C@@H]1CSSC[C@H](NC(=O)[C@H](CCCCN)NC(=O)[C@@H](N)Cc2ccccc2)C(=O)N[C@@H](CCCCN)C(=O)N[C@@H](C(C)C)C(=O)N[C@@H](CCCNC(=N)N)C(=O)N[C@@H](CCCCN)C(=O)N[C@@H](CCC(N)=O)C(=O)N[C@@H](CC(C)C)C(=O)NCC(=O)N[C@@H](CCCNC(=N)N)C(=O)N[C@@H](C(C)C)C(=O)N[C@@H](CC(C)C)C(=O)N1)C(=O)N[C@H](C(=O)N[C@H](C(=O)NCC(=O)NCC(=O)N[C@@H](CCCNC(=N)N)C(=O)N[C@@H](CCSC)C(=O)N[C@@H](CCCNC(=N)N)C(=O)N[C@@H](Cc1ccccc1)C(=O)O)C(C)C)[C@@H](C)O` (H-FKCKVRKQLGRVLCRHSRITVGGRMRF-OH; disulfide 3-14): the result with Staphylococcus aureus [1] and in the data set on Staphylococcus aureus [7] was inactive. Further, the viability at 100 µg/mL in the data set on HaCaT and in the data set on Peritoneal macrophage [9] was greater than 80% each time. The hemolysis at 100 microg/ml in data set [3] is less than 5%. The result in the data set on Peritoneal macrophage [4] and in the data set on Peritoneal macrophage [6] was Active. For the same molecule, the Activity result in [8] is “Non-toxic”.

On to `CC[C@H](C)[C@@H]1NC(=O)[C@H](CCCNC(=N)N)NC(=O)[C@H](CO)NC(=O)[C@@H](NC(=O)[C@H](Cc2c[nH]cn2)NC(=O)[C@H](CCCNC(=N)N)NC(=O)[C@H](CC(C)C)NC(=O)[C@@H](NC(=O)[C@H](CCCNC(=N)N)NC(=O)CNC(=O)[C@H](CC(C)C)NC(=O)[C@H](CCC(N)=O)NC(=O)[C@H](CCCCN)NC(=O)[C@H](CCCNC(=N)N)NC(=O)[C@@H](NC(=O)[C@H](CCCCN)NC(=O)[C@H](CCCCN)NC(=O)[C@@H](N)Cc2ccccc2)C(C)C)C(C)C)CSSC[C@@H](C(=O)O)NC(=O)[C@H](Cc2ccccc2)NC(=O)[C@H](CCCNC(=N)N)NC(=O)[C@H](CCSC)NC(=O)[C@H](CCCNC(=N)N)NC(=O)CNC(=O)CNC(=O)[C@H](C(C)C)NC(=O)[C@H]([C@@H](C)O)NC1=O` (H-FKKVRKQLGRVLRHCSRITVGGRMRFC-OH; disulfide 15-27), for which the outcome in the data set with Staphylococcus aureus [1], in the data set with Staphylococcus aureus [7] and in the data set with Escherichia coli [10] was inactive. Moreover, the viability at 100 µg/mL with HaCaT and in the data set on Peritoneal macrophage [9] was greater than 80% each time. For the same molecule, the hemolysis at 100 microg/ml in data set [3] was less than 5%. For the same molecule, the result in the data set on Peritoneal macrophage [4] and in the data set with Peritoneal macrophage [6] was Active.

For the molecule `CC(C)CCCCC(=O)N[C@@H](CCN)C(=O)N[C@H](C(=O)N[C@@H](CCN)C(=O)N[C@H]1CCNC(=O)[C@H]([C@@H](C)O)NC(=O)[C@H](CCN)NC(=O)[C@H](CCN)NC(=O)[C@H](CC(C)C)NC(=O)[C@@H](Cc2ccccc2)NC(=O)[C@H](CCN)NC1=O)[C@@H](C)O.CC[C@H](C)CCCCC(=O)N[C@@H](CCN)C(=O)N[C@H](C(=O)N[C@@H](CCN)C(=O)N[C@H]1CCNC(=O)[C@H]([C@@H](C)O)NC(=O)[C@H](CCN)NC(=O)[C@H](CCN)NC(=O)[C@H](CC(C)C)NC(=O)[C@@H](Cc2ccccc2)NC(=O)[C@H](CCN)NC1=O)[C@@H](C)O` (X3-[Dab]T[Dab][Dab][Dab][dF]L[Dab][Dab]T; lactam 4-C), the mortality at 24 h in data set [11] stood at 100%; in data set [12] it was 100%; in data set [13] it was 50%; in data set [14], 100%.

`C[C@@H](O)[C@H]1C(=O)N2C(C(=O)O)=C(S[C@@H]3CN[C@H](C(=O)N(C)C)C3)[C@H](C)[C@H]12` [MEROPENEM]: the Ratio with Escherichia coli [15] is reported as 64.

In the case of H-RRSRFGRFFKKVRKQLGRVLR-NH2, the outcome with Staphylococcus aureus [1] was inactive. Besides, the viability at 100 µg/mL with HaCaT was 80%; in the data set on 4T1, less than 40%; in the data set on Peritoneal macrophage [9], 80%; in the data set on B16-F10, less than 40%. The outcome in the data set with Peritoneal macrophage [4], with Peritoneal macrophage [16] and in the data set with Peritoneal macrophage [6] was Active.

As for H-RRSRFGRFFKKVRKQLGRVLRHS-NH2, the result in the data set with Staphylococcus aureus [1] was inactive. Moreover, the viability at 100 µg/mL in the data set with HaCaT was 80%; with 4T1 it was less than 40%; with Peritoneal macrophage [9] it was 80%; with B16-F10 it was less than 40%. For the same molecule, the outcome in the data set on Peritoneal macrophage [4], in the data set on Peritoneal macrophage [16] and with Peritoneal macrophage [6] was Active.

As for H-RRSRFGRFFKKVRKQLGRVLRHSRI-NH2, the outcome in the data set on Staphylococcus aureus [1] was inactive. For the same molecule, the viability at 100 µg/mL in the data set with HaCaT is 80%; in the data set with 4T1 it was less than 40%; with Peritoneal macrophage [9], 80%; in the data set on B16-F10, less than 40%. Also, the outcome with Peritoneal macrophage [4], with Peritoneal macrophage [16] and with Peritoneal macrophage [6] was Active. Also, the Ratio in the data set with Escherichia coli [15] is 1.

For the molecule H-RRSRFGRFFKKVRKQLGRVLRHSRITV-NH2, the result in the data set on Staphylococcus aureus [1] was inactive. Besides, the viability at 100 µg/mL with HaCaT was 80%; in the data set on 4T1, less than 40%; in the data set on Peritoneal macrophage [9], 80%; with B16-F10 it was less than 40%. The outcome in the data set on Peritoneal macrophage [4], in the data set on Peritoneal macrophage [16] and in the data set on Peritoneal macrophage [6] was Active.

Consider H-RRSRFGRFFKKVRKQLGRVLRHSRITVGG-NH2, for which, in the data set on Staphylococcus aureus [1], the result was inactive. In addition, the viability at 100 µg/mL was 80% in the data set on HaCaT, less than 40% in the data set on 4T1, 80% in the data set on Peritoneal macrophage [9] and less than 40% in the data set with B16-F10. Besides, the result with Peritoneal macrophage [4], in the data set with Peritoneal macrophage [16] and in the data set with Peritoneal macrophage [6] was Active.

H-RRSRFGRFFKKVRKQLGRVLRHSRITVGGRM-NH2: the outcome in the data set on Staphylococcus aureus [1] was inactive. Moreover, the viability at 100 µg/mL with HaCaT was 80%; in the data set with 4T1, less than 40%; with Peritoneal macrophage [9], 80%; in the data set with B16-F10, less than 40%. Moreover, the outcome with Peritoneal macrophage [4], with Peritoneal macrophage [16] and in the data set with Peritoneal macrophage [6] was Active.
